Experimental data from patent US5202315A, “Cephalosporin compounds” (Lucky, Ltd., priority 1989, dated 1993).
Converted amounts (≈) assume the structure as drawn.

Assays:
[1] = In-vivo absorbency (plasma concentrations & pharmacokinetic parameters); parameters: species or system SD rat (male); conditions: plasma, SD male rat, iv 20 mg/kg, read-out: Plasma Conc.
[2] = system: Staphylococcus aureus methicillin susceptible; assay: Antibacterial activity against clinically isolated strains, MIC; assay type: cell-based; conditions: methicillin susceptible, 42 clinical isolates, broth microdilution test; for MIC90: read-out: MIC 90%
Escherichia coli = assay: as above; assay type: cell-based; conditions: 38 clinical isolates, broth microdilution test
Klebsiella pneumoniae = assay: as above; assay type: cell-based; conditions: 10 clinical isolates, broth microdilution test; for MIC90: read-out: MIC 90%
Pseudomonas aeruginosa = assay: as above; assay type: cell-based; conditions: for MIC50: 54 clinical isolates, broth microdilution test
[3] = system: Salmonella typhimurium ATCC 14028; assay: Antibacterial activity, MIC; assay type: cell-based; conditions: Salmonella enterica; ATCC 14028; agar two-fold dilution, 37° C., 20 hours; read-out: MIC
Summary of the method: (§1)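 The compound is dispersed into Mueller-Hinton agar across a two-fold dilution series. Each strain is applied as 2 μl of a 10^7 CFU/ml suspension and grown 20 hours at 37 °C.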

[4] = system: Citrobacter freundii ATCC 8090; assay: Antibacterial activity, MIC; assay type: cell-based; conditions: ATCC8090, ATCC 8090, agar two-fold dilution, 37° C., 20 hours, read-out: MIC
Summary of the method: as §1

[5] = system: Pseudomonas aeruginosa ATCC 27853; assay: Antibacterial activity, MIC; assay type: cell-based; conditions: ATCC27853, ATCC 27853, agar two-fold dilution, 37° C., 20 hours, read-out: MIC
Summary of the method: as §1

[6] = system: Bacillus megaterium ATCC 9885; assay: Antibacterial activity, MIC; assay type: cell-based; conditions: Priestia megaterium, ATCC9885; ATCC 9885; agar two-fold dilution, 37° C., 20 hours; read-out: MIC
Summary of the method: as §1

[7] = system: Pseudomonas aeruginosa ATCC 25619; assay: Antibacterial activity, MIC; assay type: cell-based; conditions: ATCC25619, ATCC 25619, agar two-fold dilution, 37° C., 20 hours, read-out: MIC
Summary of the method: as §1

[8] = system: Acinetobacter calcoaceticus ATCC 15473; assay: Antibacterial activity, MIC; assay type: cell-based; conditions: ATCC15473, ATCC 15473, agar two-fold dilution, 37° C., 20 hours, read-out: MIC
Summary of the method: as §1

[9] = system: Shigella flexneri ATCC 11836; assay: Antibacterial activity, MIC; assay type: cell-based; conditions: ATCC11836, agar two-fold dilution, 37° C., 20 hours
Summary of the method: as §1

[10] = system: Staphylococcus aureus ATCC 10537; assay: Antibacterial activity, MIC; assay type: cell-based; conditions: ATCC10537, ATCC 10537, agar two-fold dilution, 37° C., 20 hours, read-out: MIC
Summary of the method: as §1

[11] = system: Enterobacter cloacae ATCC 27508; assay: Antibacterial activity, MIC; assay type: cell-based; conditions: ATCC27508, ATCC 27508, agar two-fold dilution, 37° C., 20 hours, read-out: MIC
Summary of the method: as §1

[12] = system: Pseudomonas aeruginosa ATCC 10145; assay: Antibacterial activity, MIC; assay type: cell-based; conditions: ATCC10145, ATCC 10145, agar two-fold dilution, 37° C., 20 hours, read-out: MIC
Summary of the method: as §1

[13] = system: Escherichia coli ATCC 10536; assay: Antibacterial activity, MIC; assay type: cell-based; conditions: ATCC10536, agar two-fold dilution, 37° C., 20 hours
Summary of the method: as §1

[14] = system: Morganella morganii ATCC 8076h; assay: Antibacterial activity, MIC; assay type: cell-based; conditions: ATCC8076H, agar two-fold dilution, 37° C., 20 hours
Summary of the method: as §1

[15] = system: Providencia rettgeri ATCC 9250; assay: Antibacterial activity, MIC; assay type: cell-based; conditions: ATCC9250, agar two-fold dilution, 37° C., 20 hours
Summary of the method: as §1

[16] = system: Bacillus cereus ATCC 11778; assay: Antibacterial activity, MIC; assay type: cell-based; conditions: ATCC11778, ATCC 11778, agar two-fold dilution, 37° C., 20 hours, read-out: MIC
Summary of the method: as §1

[17] = system: Proteus vulgaris ATCC 6059; assay: Antibacterial activity, MIC; assay type: cell-based; conditions: ATCC6059, ATCC 6059, agar two-fold dilution, 37° C., 20 hours, read-out: MIC
Summary of the method: as §1

[18] = system: Klebsiella pneumoniae ATCC 10031; assay: Antibacterial activity, MIC; assay type: cell-based; conditions: ATCC10031, ATCC 10031, agar two-fold dilution, 37° C., 20 hours, read-out: MIC
Summary of the method: as §1

[19] = system: Escherichia coli ATCC 25922; assay: Antibacterial activity, MIC; assay type: cell-based; conditions: ATCC25922, agar two-fold dilution, 37° C., 20 hours
Summary of the method: as §1

[20] = system: Serratia marcescens ATCC 27117; assay: Antibacterial activity, MIC; assay type: cell-based; conditions: ATCC27117, ATCC 27117, agar two-fold dilution, 37° C., 20 hours, read-out: MIC
Summary of the method: as §1

[21] = system: Staphylococcus epidermidis ATCC 12228; assay: Antibacterial activity, MIC; assay type: cell-based; conditions: ATCC12228, ATCC 12228, agar two-fold dilution, 37° C., 20 hours, read-out: MIC
Summary of the method: as §1

[22] = system: Shigella sonnei ATCC 11060; assay: Antibacterial activity, MIC; assay type: cell-based; conditions: ATCC11060, ATCC 11060, agar two-fold dilution, 37° C., 20 hours, read-out: MIC
Summary of the method: as §1

[23] = system: Enterobacter aerogenes ATCC 29751; assay: Antibacterial activity, MIC; assay type: cell-based; conditions: Klebsiella aerogenes, ATCC29751; ATCC 29751; agar two-fold dilution, 37° C., 20 hours; read-out: MIC
Summary of the method: as §1

[24] = system: Staphylococcus aureus ATCC 6538p; assay: Antibacterial activity, MIC; assay type: cell-based; conditions: ATCC6538P, ATCC 6538p, agar two-fold dilution, 37° C., 20 hours, read-out: MIC
Summary of the method: as §1

[25] = system: Staphylococcus aureus methicillin resistant; assay: Antibacterial activity against clinically isolated strains, MIC; assay type: cell-based; conditions: methicillin resistant, 7 clinical isolates, broth microdilution test; for MIC90: read-out: MIC 90%

Row | Compound | concentration at 1 min [1] | concentration at 2.5 min [1] | concentration at 5 min [1] | concentration at 10 min [1] | concentration at 20 min [1] | concentration at 40 min [1] | MIC50 [2] | MIC90 [2] | MIC50 (Escherichia coli) | MIC90 (Escherichia coli) | MIC50 (Klebsiella pneumoniae) | MIC90 (Klebsiella pneumoniae) | MIC90 (Pseudomonas aeruginosa) | MIC50 (Pseudomonas aeruginosa) | MIC [3] | MIC [4] | MIC [5] | MIC [6] | MIC [7] | MIC [8] | other results
1 | CCC[n+]1c(N)cc(N)nc1SCC1=C(C(=O)[O-])N2C(=O)C(NC(=O)/C(=N\OC(C)C(=O)O)c3csc(N)n3)C2SC1 (stereo not shown) [Compound I-45] | 147 µg/mL | 84 µg/mL | 67 µg/mL | 52 µg/mL | 29 µg/mL | 16 µg/mL | 2 µg/mL (≈ 3.14 µM) | 2 µg/mL (≈ 3.14 µM) | 0.13 µg/mL (≈ 0.204 µM) | 0.13 µg/mL (≈ 0.204 µM) | 0.13 µg/mL (≈ 0.204 µM) | 0.13 µg/mL (≈ 0.204 µM) | 16 µg/mL (≈ 25.1 µM) | 4 µg/mL (≈ 6.27 µM) | 0.25 µg/mL (≈ 0.392 µM) | 0.063 µg/mL (≈ 0.0988 µM) | 2 µg/mL (≈ 3.14 µM) | 0.5 µg/mL (≈ 0.784 µM) | 1 µg/mL (≈ 1.57 µM) | 8 µg/mL (≈ 12.5 µM) | MIC [9]: 0.031 µg/mL (≈ 0.0486 µM); MIC [10]: 2 µg/mL (≈ 3.14 µM); MIC [11]: 0.016 µg/mL (≈ 0.0251 µM); MIC [12]: 4 µg/mL (≈ 6.27 µM); MIC [13]: 0.063 µg/mL (≈ 0.0988 µM); MIC [14]: ≤ 0.008 µg/mL; MIC [15]: ≤ 0.008 µg/mL; MIC [16]: 64 µg/mL (≈ 100 µM); MIC [17]: 0.063 µg/mL (≈ 0.0988 µM); MIC [18]: 0.063 µg/mL (≈ 0.0988 µM); MIC [19]: 0.063 µg/mL (≈ 0.0988 µM); MIC [20]: 0.13 µg/mL (≈ 0.204 µM); MIC [21]: 1 µg/mL (≈ 1.57 µM); MIC [22]: 0.063 µg/mL (≈ 0.0988 µM); MIC [23]: 1 µg/mL (≈ 1.57 µM); MIC [24]: 2 µg/mL (≈ 3.14 µM); MIC50 [25]: > 128 µg/mL; MIC90 [25]: > 128 µg/mL
2 | CCO/N=C(\C(=O)NC1C(=O)N2C(C(=O)[O-])=C(CSc3nc(N)cc(N)[n+]3N)CSC12)c1csc(N)n1 (stereo not shown) [Compound I-16] | 149 µg/mL | 106 µg/mL | 79 µg/mL | 52 µg/mL | 32 µg/mL | 13 µg/mL | 0.25 µg/mL (≈ 0.441 µM) | 0.25 µg/mL (≈ 0.441 µM) | 0.13 µg/mL (≈ 0.229 µM) | 0.25 µg/mL (≈ 0.441 µM) | 0.13 µg/mL (≈ 0.229 µM) | 0.13 µg/mL (≈ 0.229 µM) | 16 µg/mL (≈ 28.2 µM) | 4 µg/mL (≈ 7.06 µM) | 0.25 µg/mL (≈ 0.441 µM) | 0.063 µg/mL (≈ 0.111 µM) | 2 µg/mL (≈ 3.53 µM) | 0.063 µg/mL (≈ 0.111 µM) | 0.5 µg/mL (≈ 0.882 µM) | 4 µg/mL (≈ 7.06 µM) | MIC [9]: 0.016 µg/mL (≈ 0.0282 µM); MIC [10]: 0.25 µg/mL (≈ 0.441 µM); MIC [11]: 0.016 µg/mL (≈ 0.0282 µM); MIC [12]: 4 µg/mL (≈ 7.06 µM); MIC [13]: 0.063 µg/mL (≈ 0.111 µM); MIC [14]: ≤ 0.008 µg/mL; MIC [15]: ≤ 0.008 µg/mL; MIC [16]: 4 µg/mL (≈ 7.06 µM); MIC [17]: 0.13 µg/mL (≈ 0.229 µM); MIC [18]: ≤ 0.008 µg/mL; MIC [19]: 0.063 µg/mL (≈ 0.111 µM); MIC [20]: 0.13 µg/mL (≈ 0.229 µM); MIC [21]: 0.063 µg/mL (≈ 0.111 µM); MIC [22]: 0.063 µg/mL (≈ 0.111 µM); MIC [23]: 0.25 µg/mL (≈ 0.441 µM); MIC [24]: 0.25 µg/mL (≈ 0.441 µM); MIC50 [25]: > 32 µg/mL; MIC90 [25]: > 32 µg/mL
3 | C[n+]1c(N)cc(N)nc1SCC1=C(C(=O)[O-])N2C(=O)C(NC(=O)/C(=N\OCC(=O)O)c3csc(N)n3)C2SC1 (stereo not shown) [Compound I-7] | 128 µg/mL | 83 µg/mL | 59 µg/mL | 43 µg/mL | 29 µg/mL | 15 µg/mL | 4 µg/mL (≈ 6.72 µM) | 4 µg/mL (≈ 6.72 µM) | 0.016 µg/mL (≈ 0.0269 µM) | 0.063 µg/mL (≈ 0.106 µM) | 0.016 µg/mL (≈ 0.0269 µM) | 0.031 µg/mL (≈ 0.052 µM) | 16 µg/mL (≈ 26.9 µM) | 4 µg/mL (≈ 6.72 µM) | 0.063 µg/mL (≈ 0.106 µM) | 0.031 µg/mL (≈ 0.052 µM) | 2 µg/mL (≈ 3.36 µM) | 0.5 µg/mL (≈ 0.839 µM) | 2 µg/mL (≈ 3.36 µM) | 4 µg/mL (≈ 6.72 µM) | MIC [9]: ≤ 0.008 µg/mL; MIC [10]: 2 µg/mL (≈ 3.36 µM); MIC [11]: ≤ 0.008 µg/mL; MIC [12]: 4 µg/mL (≈ 6.72 µM); MIC [13]: 0.016 µg/mL (≈ 0.0269 µM); MIC [14]: ≤ 0.008 µg/mL; MIC [15]: ≤ 0.008 µg/mL; MIC [16]: 128 µg/mL (≈ 215 µM); MIC [17]: 0.016 µg/mL (≈ 0.0269 µM); MIC [18]: 0.016 µg/mL (≈ 0.0269 µM); MIC [19]: 0.016 µg/mL (≈ 0.0269 µM); MIC [20]: 0.016 µg/mL (≈ 0.0269 µM); MIC [21]: 1 µg/mL (≈ 1.68 µM); MIC [22]: 0.016 µg/mL (≈ 0.0269 µM); MIC [23]: 0.5 µg/mL (≈ 0.839 µM); MIC [24]: 2 µg/mL (≈ 3.36 µM); MIC [25]: > 32 µg/mL; MIC50 [25]: > 32 µg/mL; MIC90 [25]: > 32 µg/mL
